The values that follow come from patent publication US12582667B2, “Compositions and methods to treat metastatic gastrointestinal cancer” (The Rockefeller University, priority 2019, dated 2026).

Where only a bound is given, the exact number is not on record here.

Series [1] deals with Lvm3b cells. Nature of the series: Lvm3b liver metastatic colonization in athymic nude mice. Type of series: in vivo, mouse. As for the experimental part:
FIGS. 3A and 3B are a set of diagrams showing the effects of the DHODH inhibitor in inhibiting liver metastatic colonization. […] The mice were imaged every week. Firefly luciferase bioluminescent images are shown (p<0.0001, Student's t-test).
(§1) All animal work was conducted in accordance with a protocol approved by the Institutional Animal Care and Use Committee (IACUC) at The Rockefeller University and Memorial Sloan Kettering Cancer Center. […] For functional studies of PCK1, colorectal cancer cells (SW480 or LS174T) that had been stably transduced with a luciferase reporter (Ponomarev et al., 2004) were subjected to portal circulation injection in NSG mice; after two minutes, a splenectomy was performed. For functional and pharmacology studies of DHODH, colorectal cancer cells (Lvm3b) that had been stably transduced with a luciferase reporter were subjected to portal circulation injection in athymic nude mice; after two minutes, a splenectomy was performed. Mice were imaged weekly; experiments were terminated when the luciferase signal had saturated or the mice were too ill, whichever occurred first.
Chow was removed from cages four hours prior to injection of LS174T cells. Gavage with either 3-MPA (200 mg/kg in aqueous solution) or placebo was performed one hour prior to the injection of LS174T cells. 1×10^6 LS174T cells were injected into the portal systemic circulation as described in the Animals section above. Chow was returned to cages after injection. On day 1, chow was removed from cages; 3-MPA or placebo was administered via gavage four hours post-chow removal. Chow was returned to cages four hours after drug administration. Mice were imaged bi-weekly. […] An equivalent volume of DMSO was intraperitoneally injected every day to the control cohort.
To directly test this, highly metastatic LVM3b CRC cells of DHODH were depleted.

Series [2] deals with CRC cells. Nature of the series: In vitro hypoxia cell growth assay with leflunomide. In kind it is cell-based, human. Particulars: for impairment of proliferation, hypoxia versus normoxia: hypoxia compared with normoxia. The protocol: In Vitro Hypoxia Cell Growth Assays
Lvm3b cells or LS174T cells were grown under normoxia for 24 hours followed by incubation for 5 days under 0.5% oxygen and then counted using the Sceptor 2.0 automated Cell Counter (Millipore).
Dihydroorotate Dehydrogenase (DHODH) is a key enzyme in the metabolic pathway that […] dihydroorotate to orotate, which is ultimately converted to the pyrimidine nucleotides UTP and CTP. To further confirm that pyrimidine biosynthesis promotes CRC hypoxic growth, CRC growth upon DHODH inhibition was assessed.

Series [3] deals with two distinct CRC populations. In words: Primary tumor growth of CRC populations under leflunomide. Particulars: leflunomide treatment. In kind it is in vivo.
In another series the test system is GAS HI tumor. In words: GAS HI patient-derived tumor growth in athymic nude mice. Type of series: in vivo, mouse. The conditions noted are these: uridine administration, patient-derived tumor (FIG. 5B; text says FIGS. 5A and 5B).
Series [4] relates to CRC cells. In words: Uridine rescue of hypoxic growth of PCK1 depleted CRC cells. The conditions noted are these: uridine supplementation, hypoxia. In kind it is cell-based, human. The protocol:
In Vitro Hypoxia Cell Growth Assays Lvm3b cells or LS174T cells were grown under normoxia for 24 hours followed by incubation for 5 days under 0.5% oxygen and then counted using the Sceptor 2.0 automated Cell Counter (Millipore). The above findings reveal that liver metastatic CRC cells enhance pyrimidine levels and that PCK1 drives pyrimidine nucleotide levels under hypoxia. […] To directly test this, whether the growth defect of PCK1 depletion upon hypoxia could be rescued by the pyrimidine nucleoside uridine was determined. […] The results reveal PCK1 induction to be a mechanism employed by CRC cells to enhance pyrimidine nucleotide levels under hypoxia to promote growth.

The subject of another series is HS746T cells. Nature of the series: HS746T subcutaneous tumor growth in NSG mice. Particulars: uridine administration, HS746T tumor (FIG. 4C). In kind it is in vivo, mouse. The protocol: MPK: mg/kg body weight of mouse. Tumor size was measured by a digital caliper, and tumor volume was calculated as volume=[…].
Cg-Prkdc^scid Il2rg^tm1Wjl/SzJ (Nod-Scid-Gamma; NSG) mice (n=4 per each cohort).

A short description of a further series: Solubility of β-GPA. In kind it is physicochemical.
Series [5] deals with LS174T cells. In words: Oral gavage of 3-MPA, LS174T liver colonization model. Type of series: in vivo, mouse. Particulars: oral gavage 200 mg/kg prior to cell injection and on day one. The protocol: as §1
Chow was removed from cages four hours prior to injection of LS174T cells. Gavage with either 3-MPA (200 mg/kg in aqueous solution) or placebo was performed one hour prior to the injection of LS174T cells. 1×10^6 LS174T cells were injected into the portal systemic circulation as described in the Animals section above. Chow was returned to cages after injection. On day 1, chow was removed from cages; 3-MPA or placebo was administered via gavage four hours post-chow removal. […]

For series [6], the system named is CRC cells. Nature of the series: Liver colonization after portal circulation injection of 3-MPA pre-treated CRC cells. In kind it is in vivo, mouse. Particulars: cells pre-treated in vitro for 24 hours, then portal circulation injection; p=0.01. As for the experimental part:
as §1
Due to the strong reduction in mCRC liver colonization observed upon PCK1 depletion, it was hypothesized that PCK1 inhibition may represent a potential therapeutic strategy for impairing CRC metastatic progression. In vivo proof-of-principle experiments were performed in two independent CRC cell lines with a PCK1-inhibitor, 3-mercaptopicolinic acid (3-MPA) (N. W. DiTullio, et al. Biochem J 138, 387-394 (1974)). […]

The subject of series [7] is LS174T cells. In words: Subcutaneous tumor growth of 3-MPA pre-treated LS174T cells. In kind it is in vivo, mouse. The conditions noted are these: pre-treatment of LS174T cells with 3-MPA.
Series [8] relates to LS174T cells. Nature of the series: 3-Mercaptopicolinic acid in vitro growth assay. The conditions noted are these: 24-hour exposure to 1 mM 3 MPA in media, terminated on day 5. In kind it is cell-based, human. The protocol:
3-Mercaptopicolinic Acid In Vitro Growth Assay
LS174T cells were seeded in 6-well plates. On day 1, the media was replaced with either control media or media supplemented with 1 mM 3 MPA. On day 2, all the media was replaced with control media. The experiment was terminated on day 5.
2×10^4 LS174T cells were seeded in triplicate. On day 1, the media was replaced with either control media or media supplemented with 1 mM 3 MPA. On day 2, all the media was replaced with control media. The experiment was terminated on day 5.

Series [9] deals with Lvm3b cells. The conditions noted are these: K. Bracht, et al. Br J Cancer 103, 340-346 (2010); cited from earlier work.

On to `Cc1oncc1C(=O)Nc1ccc(C(F)(F)F)cc1` [leflunomide], for which the “reduction in CRC liver metastatic colonization” value in the series with Lvm3b cells [1] (7.5 mg/kg body weight intraperitoneally every day, athymic nude mice, versus DMSO) is given as ~90 fold. For the same compound, in the series on Lvm3b cells [1] (7.5 mg/kg from day 1, n=4, p<0.0001, Student's t-test), the “liver metastatic colonization of Lvm3b cells (luciferase bioluminescence)” value is “inhibited liver metastatic colonization”. The “survival (Kaplan-Meier)” value in the series with Lvm3b cells [1] (7.5 mg/kg, versus control mice, p=0.006) is listed as “significantly longer survival”. Moreover, in the series on CRC cells [2] (hypoxia (0.5% oxygen)), the “CRC growth in the context of hypoxia” value is given as “significantly impaired”. In addition, the “impairment of proliferation, hypoxia versus normoxia” value in the series with CRC cells [2] is given as “impaired proliferation significantly more in the context of hypoxia than under normoxia”; in the series on CRC cells [2] (listed as Leflunomide), “more significant under hypoxia than normoxia”. In [3], the primary tumor growth result is “only modestly impacted”.

On to `O=c1ccn([C@@H]2O[C@H](CO)[C@@H](O)[C@H]2O)c(=O)[nH]1` [uridine], for which the “rescue of leflunomide-impaired growth upon hypoxia” value in the series with CRC cells [2] (uridine supplementation, hypoxia, leflunomide treatment) was “rescued”. For the same compound, the “rescue of leflunomide induced tumor growth suppression” value with GAS HI tumor was “rescued”. Moreover, the “rescue of hypoxic growth defect upon PCK1 depletion” value with CRC cells [4] was “rescued the hypoxic growth defect”. For the same compound, the “rescue of leflunomide-induced tumor growth reduction” value in the series with HS746T cells was “rescued”.

Regarding `N=C(N)NCCC(=O)O` [β-GPA, beta-guanidinopropionic acid], the “solubility in organic solvents” value in “Solubility of β-GPA” (organic solvents) is “low solubility”. In addition, in “Solubility of β-GPA” (water), the solubility is > 50 mg/mL.

With `O=C(O)c1ncccc1S` [3-MPA, 3-mercaptopicolinic acid], in the series with LS174T cells [5], the “colorectal cancer liver colonization” value is given as “decreased colorectal cancer liver colonization”. Also, the “mCRC liver colonization in vivo” value with CRC cells [6] is recorded as “significantly reduced”. The subcutaneous tumor growth result in the series on LS174T cells [7] is reported as “did not, however, alter subcutaneous tumor growth”. The “cell growth in vitro” value was “did not alter cell proliferation in vitro” with LS174T cells [8] and “does not alter” with LS174T cells [8] (listed as 3 MPA).

`O=c1[nH]cc(F)c(=O)[nH]1` [5-FU, 5-fluorouracil]: in the series on Lvm3b cells [9], the “resistance of cells to the drug” value is given as “highly resistant”.

For orientation: solubility means the dissolved amount per volume that the medium holds.
